{"source": "patent US20240299353A1", "about": "“COMPOSITIONS AND METHODS FOR TREATING […] 5-MEO-DMT” (Alvarius Pharmaceuticals Ltd., priority 2021, published 2024)", "key": {"[1]": {"tested_on": "cerebral organoids", "details": "5-MeO-DMT treated cerebral organoids; cited from earlier work"}, "[2]": {"tested_on": "BDNF", "test": "Western blot of BDNF in brain regions, chronic cocaine ± 5-MeO-DMT", "assay_type": "in vivo, Male Wistar rats", "details": "for BDNF expression: 24 h; for BDNF levels: 120 h", "source_text": "Male Wistar rats aged 7 weeks were acclimatized to the facility for 1 week prior to the beginning of the study. […] Animals were euthanized 23- or 119-hours following vehicle or 5-MeO-DMT administration.\nFollowing euthanasia brain regions of interest were isolated. Briefly, the olfactory bulbs were removed before the brain was placed in a rat brain matrix (FIG. 2A). Sterile blades were inserted at positions 2 and 3 (FIG. 2B) to extract a coronal slice containing the Bregma+˜0.2-+˜2.2 coordinates (FIG. 2C). From this tissue slice a blunted 12 G needle was used to punch dissect the NAc and dorsal striatum (DS) (FIG. 2D-2E) identified using the rat brain atlas (Panxinos and Watson 2nd edition). The PFC, hippocampus (Hip) and amygdala (Amyg) were then blunt dissected (FIG. 3A-3D). All regions were frozen in liquid nitrogen and stored at −80° C. until processed.\nThese treatment groups were used for the molecular assessment of addiction-linked markers.\nDetermination of protein concentration—a bicinchoninic acid assay (BCA, ThermoFisher) was conducted to determine the total protein concentration in tissue lysates following manufacturer's instructions. Briefly, bovine serum albumin (BSA) standards were prepared in a serial dilution (0-2.0 mg protein/ml) and 200 μl working reagent (50:1, reagent A: reagent B) was added to each of the standards and samples in a 96 well plate (Greiner). For tissue lysates a 1:10 dilution was performed with cell lysis buffer to ensure absorbance values lay within the working range established by the standards. All samples and standards were added in duplicate. The plate was covered and incubated for 30 mins at 37° C. before absorbance was read at 562 nm on a plate reader (SpectraMax M3). The absorbance values were used to form a standard curve of known protein concentrations and protein concentration of samples were derived using the equation of the line. All samples were standardized to the lowest protein concentration using distilled H20 (dH2O).\nSDS-PAGE and Western Blotting—Following equalisation of protein concentrations, 6× sample loading buffer (15% SDS, 15% […], 50% glycerol, 0.01% bromophenol blue, […]) was added to each sample using a dilution factor of 1:5 of the total volumes before boiling at 100° C. for 5 mins. Samples were stored at −20° C. until use. One dimensional sodium-dodecyl-sulphate polyacrylamide gel electrophoresis (SDS-PAGE) was used for protein separation based on molecular weight. The percentage of acrylamide in the resolving or stacking gel was determined by the molecular weight of the protein of interest. In this instance all gels consisted of a 5% stacking gel and a 10% resolving gel with the exception of mGluR5, G9a (8%) and H3K9Me2 (12%). 20 μg of protein was loaded and resolved using SDS-PAGE. Gel electrophoresis was conducted at 80V while the protein was in the stacking gel, once it migrated to the resolving gel the voltage was increased to 120V and ran for 90 mins. Samples were transferred to a 0.45 μm polyvinylidene difluoride (PVDF) membrane (Analab) for 1 hour at 100V and blocked in 5% milk blocking solution made in tris-buffered saline containing tween®-20 (TBS-T, Sigma) for 90 mins. Primary antibodies (FIG. 5) were diluted in 5% BSA in TBS-T and incubated with membranes overnight at 4° C. or for 2 hours at room temperature. After incubation with primary antibodies the membranes were washed in TBS-T for 4×10 minutes before incubation with 1:2000 anti-rabbit and 1:2000 anti-mouse Alexa Fluro® conjugated secondary antibodies (Invitrogen) in 2% milk for 1 hour at room temperature. Membranes were washed in TBS-T for 4×10 minutes and in TBS for 1×10-minute wash. Proteins were visualized using Odyssey® infrared imaging system. Protein expression was quantified using Image Studio Lite (Version 5.2) and expression intensities were normalized to a house keeping protein, α-Tubulin or β-actin."}, "[3]": {"details": "i.p. administration, rodents; cited from earlier work"}}}
{"smiles": "COc1ccc2[nH]cc(CCN(C)C)c2c1", "note": "[5-MeO-DMT, 5-methoxy-N,N-dimethyltryptamine]", "values": [{"measurement": "mGluR5 receptor expression", "setting": "[1]", "value": "decrease in mGluR5 receptor expression"}, {"measurement": "BDNF expression", "setting": "[2]; PFC, cocaine+10 mg/kg 5-MeO-DMT relative to saline+vehicle", "value": "significant decrease in BDNF expression"}, {"measurement": "BDNF expression", "setting": "[2]; PFC, cocaine+20 mg/kg 5-MeO-DMT relative to saline+vehicle", "value": "significant decrease in BDNF expression"}, {"measurement": "BDNF expression", "setting": "[2]; hippocampus, any of the treatment groups", "value": "no change in BDNF expression"}, {"measurement": "BDNF levels", "setting": "[2]; hippocampus, 10 mg/kg 5-MeO-DMT alone", "value": "no effect alone"}, {"measurement": "BDNF levels", "setting": "[2]; hippocampus, 20 mg/kg 5-MeO-DMT alone", "value": "significant decrease in BDNF levels"}, {"measurement": "BDNF levels", "setting": "[2]; hippocampus, cocaine+10 mg/kg 5-MeO-DMT", "value": "does not affect the cocaine-induced decrease in expression levels"}, {"measurement": "BDNF levels", "setting": "[2]; hippocampus, cocaine+20 mg/kg 5-MeO-DMT", "value": "restores BDNF levels to those seen in the control group"}, {"measurement": "terminal half-life (t½)", "setting": "[3]", "value": "12 to 19", "unit": "min"}, {"measurement": "time of maximal drug concentration", "setting": "[3]", "value": "5 to 7", "unit": "min"}]}
